What was measured:
[1] = target: T1, human cloned 5-HT2B receptors (Homo sapiens, UniProt P41595); assay: Human cloned 5-HT2B cell-based functional assay (Fluo-4, block of 5-HT response); details: CHO.K1 cells expressing cloned 5-HT2B receptor, inhibition of the 5-HT response
T1 construct: expressed in transfected cells; host or cells: CHO-K1
Protocol: Human Cloned […] Cell-Based Functional Assay The following describes an in vitro functional assay using human cloned 5-HT2B receptors to determine the ability of compounds to block the receptor. CHO.K1 cells expressing cloned 5-HT2B receptor were maintained In Ultra-CHO medium containing 400 μg/ml of G418, 100 U/ml penicillin, 100 μg/ml streptomycin, 2.5 μg/ml fungizone, in 95/5% O2/CO2 at 37° C. Ultra-CHO medium additionally supplemented with 1% foetal bovine serum was used when seeding the cells and removed after 5 hours. Cells were plated in Costar 96 well white, clear-bottomed plate at a density of 50,000 cells per well and incubated for at least 24 hours in 95/5% O2/CO2 at 37° C. before running the assay. Media was removed from the wells and 200 μl of 4 μM Fluo-4 AM added, this was incubated in a Wallace Victor 2V workstation at 37° C. for 30 minutes. The Fluo-4 AM was then removed from the wells, which were then washed twice with 200 μl of buffer (HBSS without calcium/magnesium/phenol red, 20 mM HEPES, 1 mM Ca^2+, 1 mM Mg^2+, 2.5 mM probenecid, pH to 7.4), 180 μl of buffer or test compound was added to the well and incubated for 30 minutes. The Victor 2V injectors were used to inject 20 μl of 5-HT after obtaining 10 0.1-second baseline readings at 535 nm, followed by 150 readings. All test compounds were aliquoted in 100% DMSO at 10 mM and diluted to 1 mM in 50% DMSO, subsequent dilutions were made using buffer. Buffer was also used to dilute the 5-HT. Data were analysed using Microsoft Excel and GraphPad Prism, with the latter used to produce sigmoidal dose-response curves for each compound. The compound concentration that inhibited the 5-HT response by 50% was taken (IC50−M), and the results are shown in Table 2, as pIC50, being the negative log (to the base 10) of the measured IC50 values.

[2] = target: T1, human cloned 5-HT2B receptors; assay: Human cloned 5-HT2B receptor binding assay ([3H]LSD); details: membranes of CHO-K1 cells expressing cloned 5-HT2B receptor, [3H]LSD 1 nM; read-out: 5-HT2B pKi (converted)
Protocol: Human Cloned 5-HT2B Receptor Binding Assay
The binding affinity of the compounds for human cloned 5-HT2B receptors was determined using the following assay.
CHO-K1 cells expressing cloned 5-HT2B receptor were maintained in Ultra-CHO medium containing 400 μg/ml of G418, 100 U/ml penicillin, 100 μg/ml streptomycin, 2.5 μg/ml fungizone and 1% foetal bovine serum, in 95/5% O2/CO2 at 37° C. The cells were harvested using 0.25% trypsin and were centrifuged at 800 rpm for 8 minutes. The cells were homogenised in 50 mM HEPES buffer containing 1 mM disodium EDTA and 1 mM PMSF at pH 7.4, using a Dounce homogeniser (20 strokes). The homogenate was centrifuged at 2280 rpm (1000 g) and 4° C. for 10 minutes, after which the supernatant was removed by decanting. The pellet was re-homogenised as above, and the resulting supernatant removed and combined with that already obtained. The supernatant solution was then centrifuged at 18300 rpm (40000 g) for 10 minutes at 4° C. using a Sorvall centrifuge. The supernatant was removed, and the pellet was re-suspended in 50 mM buffer at pH 7.4 using a Ultra-turrax T25 Polytron, before centrifugation again at 40000 g as above. This wash procedure was repeated, after which the membrane preparation was stored at a concentration of 1 mg/ml at −80° C. until use.
The membranes were thawed rapidly and diluted in assay buffer containing Tris-HCl (50 mM, pH 7.4), ascorbic acid (0.1%) and calcium chloride (4 mM). The membranes were homogenised to resuspend them, prior to adding 10 or 15 μg of membranes to assay wells containing [^3H]LSD (1 nM), assay buffer (50 mM Tris, 4 mM calcium chloride and 0.1% ascorbic acid) containing pargyline (10 μM), and the test compounds (1×10^−10 to 1×10^−4 M). Non specific binding was determined in the presence of 100 μM 5-HT. After 30 minutes incubation at 37° C., the assay mixture was filtered through a combination of GF-C and GF-B filters, pre-soaked in 1% polyethyleneimine, using a Brandel cell harvester, and were washed three times using 50 mM Tris-HCl. Radioactivity retained on the filters was determined by liquid scintillation counting. For each test compound, the concentration that inhibited binding of [^3H)LSD by 50% was determined using curve fitting software (Prism). Kd values (concentration of LSD required to occupy 50% of the receptor binding sites at equilibrium) determined from saturation binding studies were then used to calculate inhibition dissociation constants (Ki) using the following equation: [formula]
This approach follows that set out in Kenakin, T. P. Pharmacologic analysis of drug-receptor interaction. Raven Press, New York, 2nd Edition, which is incorporated herein by reference.

[3] = target: T2, cloned human 5-HT2A receptor (Homo sapiens, UniProt P28223); assay: Human 5-HT2A receptor binding assay ([3H]ketanserin); details: membranes of CHO-K1 cells expressing cloned human 5-HT2A receptor, [3H]ketanserin 1 nM; read-out: 5-HT2A pKi (converted)
T2 construct: purchased Euroscreen; host or cells: CHO-K1
Protocol: (§1) Human 5-HT2A and 5-HT2C Receptor Binding Assays
(§2) The binding affinity of ligands for human 5-HT2A and 5-HT2C receptors was determined using the following assay.
Membrane preparations from CHO-K1 cells expressing the cloned human 5-HT2A receptor were obtained (Euroscreen). The membranes were thawed rapidly and diluted in assay buffer containing Tris-HCl (50 mM, pH 7.7). The membranes were resuspended by homogenisation, prior to adding 15 μg of membranes to assay wells containing [^3H] ketanserin (1 nM), assay buffer (50 mM Tris at pH 7.4) containing pargyline (10 μM), and test compounds (1×10^−10 to 1×10^−4M). Non specific binding was determined in the presence of 100 μM mianserin. After 15 minutes incubation at 37° C., the assay mixture was filtered through a combination of GF-C and GF-B filters, pre-soaked in 0.05% Brij, using a Brandel cell harvester, and were washed three times using ice cold Tris-HCl buffer (50 mM). Radioactivity retained on the filters was determined by liquid scintillation counting. For each test compound, the concentration that inhibited binding of [^3H]ketanserin by 50% was determined using curve fitting software (Prism). Kd values (concentration of ketanserin required to occupy 50% of the receptor binding sites at equlibrium)determined from saturation binding studies were then used to calculate inhibition dissociation constants (Ki) using the following equation: [formula]

[4] = target: T3, cloned human 5-HT2C receptor (Homo sapiens, UniProt P28335); assay: Human 5-HT2C receptor binding assay ([3H]mesulergine); details: membranes of CHO-K1 cells expressing cloned human 5-HT2C receptor, [3H]mesulergine 1 nM; read-out: 5-HT2C pKi (converted)
T3 construct: purchased Euroscreen; host or cells: CHO-K1
T3 sequence (P28335 33-458): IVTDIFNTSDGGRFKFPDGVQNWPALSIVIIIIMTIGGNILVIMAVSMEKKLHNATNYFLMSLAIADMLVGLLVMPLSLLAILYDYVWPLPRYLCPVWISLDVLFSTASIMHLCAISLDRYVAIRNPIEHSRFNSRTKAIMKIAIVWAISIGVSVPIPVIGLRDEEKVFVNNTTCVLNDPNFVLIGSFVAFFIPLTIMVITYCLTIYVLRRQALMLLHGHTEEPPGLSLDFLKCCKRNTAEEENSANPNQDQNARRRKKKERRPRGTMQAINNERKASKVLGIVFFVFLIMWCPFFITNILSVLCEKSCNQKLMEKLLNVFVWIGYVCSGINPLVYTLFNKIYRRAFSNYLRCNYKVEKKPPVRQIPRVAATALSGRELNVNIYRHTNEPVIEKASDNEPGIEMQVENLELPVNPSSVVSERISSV
Protocol: as §1, §2
Membrane preparations from CHO-K1 cells expressing the cloned human 5-HT2C receptor were obtained (Euroscreen). The membranes were thawed rapidly and diluted in assay buffer containing Tris-HCl (50 mM, pH 7.7), ascorbic acid (0.1%) and pargyline (10 μM). The membranes were resuspended by homogenisation, prior to adding 6 μg of membranes to assay wells containing [^3H] mesulergine (1 nM), assay buffer (50 mM Tris at pH 7.7 and 0.1% ascorbic acid) containing pargyline (10 μM), and test compounds (1×10^−10 to 1×10^−4M). Non specific binding was determined in the presence of 100 μM mianserin. After 30 minutes incubation at 37° C., the assay mixture was filtered through a combination of GF-C and GF-B filters, pre-soaked in 1% bovine serum albumin, using a Brandel cell harvester, and were washed three times using ice cold Tris-HCl buffer (50 mM). Radioactivity retained on the filters was determined by liquid scintillation counting. For each test compound, the concentration that inhibited binding of [^3H]mesulergine by 50% was determined using curve fitting software (Prism). Kd values (concentration of mesulergine required to occupy 50% of the receptor binding sites at equlibrium) determined from saturation binding studies were then used to calculate inhibition dissociation constants (Ki) using the following equation: [formula]

T2 sequence (P28223 whole entry): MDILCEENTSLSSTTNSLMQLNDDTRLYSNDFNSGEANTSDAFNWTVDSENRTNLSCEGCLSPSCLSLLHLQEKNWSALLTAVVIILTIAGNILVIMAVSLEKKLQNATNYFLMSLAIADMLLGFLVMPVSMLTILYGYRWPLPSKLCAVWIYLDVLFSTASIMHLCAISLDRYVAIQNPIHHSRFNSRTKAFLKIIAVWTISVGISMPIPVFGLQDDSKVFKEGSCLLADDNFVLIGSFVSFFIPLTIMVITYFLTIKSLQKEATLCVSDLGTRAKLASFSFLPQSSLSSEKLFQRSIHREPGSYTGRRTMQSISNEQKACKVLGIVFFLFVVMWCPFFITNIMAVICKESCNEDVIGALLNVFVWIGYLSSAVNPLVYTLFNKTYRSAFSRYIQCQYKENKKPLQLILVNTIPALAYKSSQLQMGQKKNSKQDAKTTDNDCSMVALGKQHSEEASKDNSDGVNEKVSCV
T1 sequence (P41595 whole entry): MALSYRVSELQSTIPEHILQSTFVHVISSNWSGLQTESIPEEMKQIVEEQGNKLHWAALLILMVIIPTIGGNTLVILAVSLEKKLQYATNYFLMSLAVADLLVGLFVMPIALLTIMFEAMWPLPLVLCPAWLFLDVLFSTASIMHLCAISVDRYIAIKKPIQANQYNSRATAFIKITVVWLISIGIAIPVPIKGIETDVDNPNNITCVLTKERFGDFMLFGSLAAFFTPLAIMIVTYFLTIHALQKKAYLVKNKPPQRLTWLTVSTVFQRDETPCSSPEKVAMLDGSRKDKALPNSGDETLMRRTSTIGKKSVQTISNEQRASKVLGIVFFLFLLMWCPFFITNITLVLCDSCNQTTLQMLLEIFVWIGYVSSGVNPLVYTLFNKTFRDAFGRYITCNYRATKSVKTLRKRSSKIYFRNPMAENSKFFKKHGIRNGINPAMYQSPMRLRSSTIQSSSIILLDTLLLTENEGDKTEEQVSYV

SMILES | IC50 [1] | Ki [2] | Ki [3] | Ki [4]
CC(C)c1sc(N)nc1-c1cccc2ccccc12 [Compound 2, 2-amino-5-isopropyl-4-(naphth-1-yl)thiazole] | < 100 nM | < 100 nM | > 1000 nM | > 1000 nM
Cc1sc(N)nc1-c1cccc2ccccc12 [Compound 1, 2-amino-5-methyl-4-(naphth-1-yl)thiazole] | < 1000 nM | < 1000 nM | > 10000 nM | > 1000 nM
Nc1nc(-c2cccc3ccccc23)cs1 [Compound 3, 2-amino-4-(naphth-1-yl)thiazole] | < 1000 nM | < 1000 nM | > 1000 nM | > 1000 nM
Nc1nc(-c2ccc3ccccc3c2)cs1 [Compound 4, 2-amino-4-(naphth-2-yl)thiazole] | < 10000 nM | < 10000 nM | > 10000 nM | > 10000 nM

— US20050154031A1, “5-Ht2b receptor antagonists” (priority 2002, published 2005)
